In US20090104637A1, “Method and Apparatus for Assaying Blood Clotting” (priority 2006, published 2009):
Marks after values point to notes of the source that are not given here.

Experiments:
[1] = cited from earlier work
donor's whole blood = assay: On-chip APTT assay with argatroban titration, plug-based microfluidic device, whole blood, 23° C.; format: biochemical, human; conditions: APTT with argatroban / baseline APTT
[2] = test system: normal pooled plasma and donor plasma; assay: On-chip APTT assay with argatroban titration, plug-based microfluidic device, plasma, 37° C.; format: biochemical, human
human α-thrombin = target: T1, human α-thrombin (Homo sapiens, UniProt P00734); conditions: 37° C., 50 mM Tris-HCl, pH 8.0, 0.15 M NaCl, 1 mM CaCl2, 1 mg/mL BSA; cited from earlier work
T1 construct: A fluorogenic substrate for human α-thrombin

human blood plasma = assay: Velocity of clot propagation in a microfluidic channel in the absence of flow; format: biochemical
Source text: To test the prediction that clots propagate as a reactive front with a constant velocity, the inventors used a microfluidic system to regulate and observe clotting in human blood plasma. This system was fabricated in poly(dimethylsiloxane) (PDMS).
FIG. 22 illustrates measurement of the propagation of a blood clot through a microfluidic channel in the absence of flow. Clots propagate with a similar velocity, Fv, in the absence and presence of a membrane-bound inhibitor of clotting, thrombomodulin (TM), on the channel wall. FIG. 22a is a schematic drawing of the procedure for initiating and monitoring clot propagation in a microfluidic device. […] FIG. 22b is a fluorescence microphotograph of a microfluidic device showing that lipids with reconstituted TF (lipid-TF) can be localized to a specific section of a channel in a background of inert lipids. FIG. 22c is a time-lapse fluorescence microphotographs showing position of the clot at 0, 40, and 80 min after plasma was introduced into the channel.
Clot initiation and propagation were spatially separated by patterning the walls of the same channel with different phospholipids (FIG. 22a). […] Clotting was monitored using bright-field microscopy to detect fibrin formation and fluorescence microscopy to detect thrombin-induced cleavage of a peptide-modified coumarin dye. […]

[3] = test system: activated protein C (aPC); assay: Activated protein C (aPC) production from Egg PC lipid coated surfaces with reconstituted thrombomodulin; format: biochemical
Source text: It has been proposed that clot propagation is regulated by thrombomodulin (TM), an inhibitor of clotting located at on the walls of vessels near sites of vascular damage. It has been shown that clot propagation is reduced when TM is homogenously mixed into blood plasma. To mimic the localization of TM on vessel walls, TM was incorporated at the channel walls and tested if this TM was sufficient to stop clot propagation. The inventors incorporated TM into the inert phospholipid surface by forming inert lipid vesicles with reconstituted TM (lipid:TM) and by using the procedure described above to coat the channel walls.
Control experiments verified TM activity on the channel walls was on the same order of magnitude as previously measured for a monolayer of endothelial cells. Measured TM activities are shown in Table 2, which illustrates the quantification of activated protein C (aPC) production from Egg PC lipid coated surfaces with reconstituted thrombomodulin (TM). Corresponding velocities of clot propagation are shown.

[4] = test system: normal pooled plasma (NPP); assay: Initiation of clotting on patches of TF-reconstituted bilayers (timescale of reaction, threshold patch size); format: biochemical, human
Experimental: Reconstituting tissue factor (TF) to obtain clot-promoting vesicles. TF was reconstituted into mixed vesicles of DLPC/PS/Texas Reds DHPE (79.5/20/0.5 mole percents) at a concentration of 1.25 mg/mL in 1×HEPES-buffered saline/Ca^2+ buffer. For experiments in FIGS. 17, 18, and 19 the TF concentration in the vesicle solution was 0.40 nM (TF:lipid ratio of 2.5×10^−7). Assuming that all the TF was incorporated into the vesicles, the calculated surface concentration would be 0.08 fmol/cm^2. For experiments in Table 1, a final concentration of 0.16 nM of TF (TF:lipid ratio of 1×10^−7) was used. After addition of TF to the vesicle solution, the solution was incubated at 37° C. for 30 min and then stored at 12° C. The vesicles were used within 18 hrs.
Generating patches by backfilling clot-promoting lipids into the photo-removed regions of bilayer. To generate the clot-promoting patches, the patterned bilayers were backfilled with 30 μL of the TF-reconstituted vesicle solution (1.25 mg/mL vesicles in PBS buffer) and allowed to incubate for 4 min at room temperature. Phospholipid bilayers containing active TF have been prepared previously (Contino et al., 1994, Biophys. J. 67: 1113-1116 (1994)). Excess vesicles were removed by vigorous rinsing with a solution of NaCl (150 mM). Patterned bilayers were used immediately in clotting experiments.
Recalcifying the blood plasma samples and adding the thrombi-sensitive dye. All blood plasma samples were recalcified by adding a solution of CaCl2 containing the thrombin-sensitive fluorescent dye, Boc-Asp(OBzl)-Pro-Arg-MCA, (CaCl2, 40 mM; NaCl, 90 mM; and Boc-Asp(OBzl)-Pro-Arg-MCA, 0.4 mM). At the start of each experiment, the plasma and the solution containing CaCl2 were mixed 3:1 by volume. Clotting was detected by the appearance of fibrin using bright field microscopy, and by the appearance of fluorescence signal generated when 4-Methyl-Coumaryl-7-Amine (MCA) was cleaved from Boc-Asp(OBzl)-Pro-Arg-MCA by thrombin.
Inhibiting the factor XII pathway with corn trypsin inhibitor. For experiments measuring clot times for the TF pathway (all experiments using phospholipid bilayers and reconstituted TF), the factor XII (contact) pathway was inhibited with corn trypsin inhibitor (CTI). […]
The threshold patch size of donor platelet rich plasma and normal pooled plasma was measured at 24° C. and 37° C. Clot times were measured on patches presenting clotting stimuli (TF-reconstituted bilayers) in arrays containing patches of different sizes (Table 1). In a single experiment, the clot time on seven different patch sizes was measured. […] Clot time vs. patch size for platelet rich plasma (PRP) from donors was measured.

In the case of `O=Nc1ccccc1C(=O)O` [2-nitrosobenzoic acid], the pKa [1] is listed as less than 4.

In the case of `CC1CNc2c(cccc2S(=O)(=O)N[C@@H](CCCNC(=N)N)C(=O)N2CC[C@@H](C)C[C@@H]2C(=O)O)C1` (some centres unmarked) [argatroban], the APTT ratio (donor's whole blood; argatroban 0.5 μg/mL) is reported as 2.3, the APTT ratio (donor's whole blood; argatroban 1.0 μg/mL) is reported as 2.8 and the APTT ratio ([2]; argatroban 0.5 μg/mL) is reported as “about 2.1”. For the same molecule, the APTT ratio ([2]; argatroban 1.0 μg/mL) was 2.7.

For “t-butyloxycarbonyl-β-benzyl-L-aspartyl-L-prolyl-Larginine-4-methyl-coumaryl-7-amide”, the Km (human α-thrombin) is listed as 11 µM and the kcat (human α-thrombin) is listed as 160 s⁻¹.

With thrombomodulin [TM] the “Front Velocity” value (human blood plasma; Glass, 37 ° C., TM:Egg PC ratio 1:7560, 41 without TM) was 50 μm min^−1, the “Front Velocity (Fv)” value (human blood plasma; PDMS, 25 ° C., TM:Egg PC ratio 1:75600 (lipid:TM=7.6×10^4), 20 without TM) was 24 μm min^−1 and the aPC production ([3]; Glass, 37 ° C., TM:Egg PC ratio 1:7560) was 10 pmol min^−1 m^−2. For the same molecule, the aPC production ([3]; Glass, 37 ° C., TM:Egg PC ratio 1:75600) was 0.3 pmol min^−1 m^−2, the aPC production ([3]; PDMS, 25 ° C., TM:Egg PC ratio 1:7560) was 5* pmol min^−1 m^−2 and the aPC production ([3]; PDMS, 25 ° C., TM:Egg PC ratio 1:75600) was 10 pmol min^−1 m^−2.

B1: tissue factor (protein, UniProt P13726 33-295, looked up)
Tissue factor: SGTTNTVAAYNLTWKSTNFKTILEWEPKPVNQVYTVQISTKSGDWKSKCFYTTDTECDLTDEIVKDVKQTYLARVFSYPAGNVESTGSAGEPLYENSPEFTPYLETNLGQPTIQSFEQVGTKVNVTVEDERTLVRRNNTFLSLRDVFGKDLIYTLYYWKSSSSGKKTAKTNTNEFLIDVDKGENYCFSVQAVIPSRTVNRKSTDSPVECMGQEKGEFREIFYIIGAVVFVVIILVIILAISLHKCRKAGVGQSWKENSPLNVS
modifications: in phospholipid bilayers
notes: human recombinant tissue factor reconstituted in phospholipid bilayers, clotting stimulus
In the case of B1, the “threshold patch size, ptr” value ([4]; [TF]=0.16 nM in vesicles) is reported as 160±32 μm, the “timescale of reaction, tR” value ([4]; [TF]=0.16 nM in vesicles) is reported as 206 s and the “threshold patch size, ptr” value ([4]; [TF]=0.40 nM in vesicles) is reported as 75±25 μm. For the same molecule, the “timescale of reaction, tR” value ([4]; [TF]=0.40 nM in vesicles) was 30 s.
